# From US12064641B2, “Bactericidal methods and compositions” (Pulsethera, Inc., priority 2019, dated 2024)
# Read-outs that look alike come from different tables or passages of the source.
# Experiments:
# [1] = test system: stationary-phase MRSA USA300
# Excerpt: (§1) CFU experiments to test the potential synergy between photoinactivation of catalase and H2O2: Overnight-cultured bacteria was centrifuged, the supernatant was discarded, and the pellet was resuspended with the same amount of PBS. The laser source used in the study is nanosecond (ns) pulsed OPO laser purchased from OPOTEK Inc, model number as Opolette HE355 LD, having the following key specifications: wavelength range, 410-2400 nm; pulse repetition rate, 20 Hz; maximum pulse energy at 460 nm, 8 mJ; pulse duration, 5 nanosecond; spectral linewidth, 4-6 cm-1; and pulse-to-pulse stability, <5%. For each bacterial strain there were four groups: untreated one, ns-410 nm-treated group, H2O2 (22 or 44 mM)-treated group, ns-410 nm plus H2O2 (22 or 44 mM)-treated group. Dose for ns-410 nm exposure was 15 J/cm^2. H2O2 was incubated with bacteria for 30 min at 37° C. with the shaking speed of 200 rpm. After incubation, bacterial burden from each group was serial diluted, inoculated onto TSA plates, then counted by enumeration of these plates.
# [2] = test system: stationary-phase Pseudomonas aeruginosa
# Excerpt: as §1
# [3] = test system: Salmonella enterica; settings: ns-410 nm combined with H2O2 22 mM
# Excerpt: as §1
# [4] = test system: Candida albicans SC5314
# Description: CFU test to quantify the treatment efficacy: Quantification of antifungal treatment schemes were achieved as following: overnight cultured fungal specimen was washed by sterile PBS. And log-phase fungal pathogens were prepared by dilution into fresh YPD broth at a ratio of 1:50 and cultured for another 2-3 hours at 30° C. with the shaking speed of 200 rpm. After that, the fungal concentration was adjusted to be around 1×10^8 cells/ml by centrifuging or further dilution with PBS. 10 μl of the above fungal solution was exposed to 410 nm for 5 min (150 mW/cm^2). After that, the exposed sample was collected into 990 μl of sterile PBS, then supplemented with treatment agents. Later, CFU of fungal cells was enumerated by serial dilution and cultured in YPD agar plates for 48 hours.
# [5] = test system: CASC5314; settings: 410 nm plus low-concentration H2O2; log-phase or stationary-phase
# Description: (§2) PrestoBlue viability assay: First log-phase fungal pathogens were prepared by diluting overnight-cultured fungal pathogens into fresh YPD broth at a ratio of 1:50 and cultured for another 2-3 hours at 30 C with the shaking speed of 200 rpm. After that, the fungal concentration was adjusted to be around 1×10^8 cells/ml by centrifuging or further dilution with PBS. 10 μl of the above fungal solution was exposed to 410 nm for 5 min (150 mW/cm^2). After that, the exposed sample was collected into 990 μl of sterile PBS, then supplemented with treatment agents. Aliquots were made from the above sample into a 96-well plate, with each well containing 100 μl. Then 100 μl sterile YPD broth and 23 μl of PrestoBlue were added into the same well. Fluorescence signal at 590 nm from each well was recorded in a time-course (up to 18 hours with the interval of 30 min) manner at an excitation of 560 nm. For each strain, in order to know the exact number of fungal pathogens in each well, the corresponding fluorescence signals were recorded from fungal pathogens with known numbers, however no external treatments.
# [6] = test system: clinical fungal isolates; settings: 410 nm plus H2O2; more than twenty different clinical fungal isolates
# Description: as §2
# [7] = test system: C. auris strains; assay: PrestoBlue viability assay, amp B; format: cell-based, Candida auris
# [8] = test system: E. coli BW25113; assay: CFU, photoinactivation of catalase with silver cation; format: cell-based, Escherichia coli; settings: 30 and 60 minutes
# [9] = test system: MRSA USA300; assay: Spread agar plates, photoinactivation of catalase with silver cation; format: cell-based, methicillin-resistant Staphylococcus aureus
# [10] = test system: Enterococcus faecalis NR-31970; assay: CFU test of synergy between photoinactivation of catalase and ROS-generating antibiotics (catalase-negative control); format: cell-based; settings: ns-410 nm plus tobramycin 2 μg/ml, 4-hour incubation; catalase-negative strain
# Description: (§3) Then prior to any treatments, the above solution was incubated with antibiotics (10 μg/ml) for 1 hour. For each bacterial strain, four groups were tested: untreated one, ns-410 nm-treated group, antibiotic (2 μg/ml)-treated group, ns-410 nm plus antibiotic (2 μg/ml)-treated group. Dose for ns-410 nm exposure was 15 J/cm2.
# [11] = test system: E. coli BW25113; assay: CFU test of synergy between photoinactivation of catalase and ROS-generating antibiotics; format: cell-based, Escherichia coli; settings: ns-410 nm (15 J/cm2) plus tobramycin 2 μg/ml, 4-hour incubation
# Description: as §3
# [12] = H2O2 22 mM after photoinactivation of catalase (15 J/cm2)
structure (smiles),measurement,setting,value
"OO [H2O2, hydrogen peroxide]","killing efficacy, ns-410 nm plus H2O2 compared to CW-410 nm plus H2O2",[1]; FIG. 6,significantly more effective
same,reduction of bacterial burden,[1]; [12],≥ 3 log 10 reduction
same,reduction of bacterial burden,[1]; ns-410 nm (15 J/cm2) in combination with H2O2 22 mM,approximately four
same,reduction of bacterial burden,[1]; ns-430 nm combined with H2O2 22 mM,around 99%
same,reduction of bacterial burden,[1]; ns-450 or ns-460 nm combined with H2O2 22 mM,around 90%
same,reduction of bacterial burden,[1]; ns-470 nm combined with H2O2 22 mM,around 50%
same,antimicrobial effect,[1]; ns-480 nm combined with H2O2 22 mM,barely exerts an antimicrobial effect
same,"killing efficacy, ns-410 nm plus H2O2 compared to CW-410 nm plus H2O2",[2]; FIG. 6,significantly more effective
same,reduction of bacterial burden,[2]; [12],≥ 3 log 10 reduction
same,eradication,[2]; H2O2 22 mM combined with 410 nm exposure (15 J/cm2),total eradication
same,antimicrobial effect (CFU ml-1),"[2]; H2O2 alone, 22 mM",didn't exert any significant antimicrobial effect
same,enhanced killing effect,[3],around five
same,enhancement of the function of H2O2 after photoinactivation of catalase,"[4]; 410 nm exposure then H2O2, FIG. 11",more than five
same,killing effect (CFU ml-1),"[4]; H2O2 alone, 44 mM (0.15%), 1.5-hour incubation, stationary-phase",doesn't exert significant killing effect
same,"eradication (time-killing, CFU)","[4]; low-concentration H2O2 after 410 nm exposure, FIG. 11",eradication was achieved
same,eradication,"[4]; ns-410, ns-420 or ns-430 combined with H2O2 44 mM",total eradication
same,reduction of fungal burden,[4]; ns-450 or ns-480 nm combined with H2O2 44 mM,reduced a similar amount of fungal burden as H2O2-alone
same,reduction of burden,[4]; ns-light (24 J/cm^2) in combination with H2O2 44 mM,around four
same,effect of photoinactivation of catalase on killing by H2O2 (PrestoBlue fluorescence),[5],always boosts the killing effect
same,killing by synergistic therapy (PrestoBlue),[6],significant killing was consistently found
"C[C@@H]1[C@H](O)[C@@H](C)/C=C/C=C/C=C/C=C/C=C/C=C/C=C/[C@H](O[C@@H]2O[C@H](C)[C@@H](O)[C@H](N)[C@@H]2O)C[C@@H]2O[C@](O)(C[C@@H](O)C[C@@H](O)[C@H](O)CC[C@@H](O)C[C@@H](O)CC(=O)O[C@H]1C)C[C@H](O)[C@H]2C(=O)O [amp B, amphotericin B]",eradication (PrestoBlue fluorescence),"[7]; 410 nm plus amp B, same result with 410 nm without amp B, ten strains",total eradication
same,susceptibility (PrestoBlue fluorescence),"[7]; amp B alone, without photoinactivation of catalase",some C. auris strains were resilient
[Ag+] [silver cation],killing effect (CFU ml-1),[8]; 0.5 μM Ag+ alone,doesn't exert any significant killing effect
same,reduction of bacterial burden,[8]; CW-410 (22 J/cm^2) combined with 0.5 μM Ag+,didn't significantly reduce bacterial burden
same,reduction of bacterial burden,[8]; ns-410 (22 J/cm^2) in combination with 0.5 μM Ag+,around 99%
same,MRSA eliminated,"[9]; ns-410 nm combined with 10 μM silver cation, one hour after treatment",about 90%
same,antimicrobial effect,[9]; silver cation alone,does not exert any significant antimicrobial effect
"NC[C@H]1O[C@H](O[C@H]2[C@H](O)[C@@H](O[C@H]3O[C@H](CO)[C@@H](O)[C@H](N)[C@H]3O)[C@H](N)C[C@@H]2N)[C@H](N)C[C@@H]1O [tobramycin, Tobramycin]",enhanced killing effect in combination-treated group,[10],did not produce any enhanced killing effect
same,enhancement of killing in combination-treated group,[11],More than 100 times
